Measurements as given in patent US8450308B2 (Vitae Pharmaceuticals, Inc., priority 2008, dated 2013).

target: T1, truncated human beta-secretase (residues 1-458, His6-tagged at the C-terminus) (Homo sapiens, UniProt P56817); experiment: BACE fluorescence quench assay; assay type: biochemical; settings: not given
T1 construct: truncated human beta-secretase (residues 1-458, His6-tagged at the C-terminus); His6 (C); made in house; host or cells: insect cells D. melanogaster S2 (baculovirus expression system (so in the source))
Procedure: The assay was performed at room temperature in 96-well white opaque Optiplates aque Optiplates (PerkinElmer, Waltham, Mass.) in a total volume of 200 μl of the incubation mixture containing 50 mM sodium acetate buffer, pH 4.5, 0.4 μM FRET substrate, 2.4 nM enzyme, 5% DMSO, and 0.05% Brij-35. The tested compounds were serially diluted in DMSO and pre-incubated with the substrate. The reaction was started by addition of enzyme, and the progress of the reaction was followed by measuring fluorescence with an excitation wavelength of 480 nm and an emission wavelength of 520 nm. Ten measurements were taken every 5-10 min, and the intensity of fluorescence was regressed against time in order to derive velocities of reaction in all 96 wells. […] IC50 values were calculated by fitting percent inhibition vs. inhibitor concentration into a four-parametric logistic model using XLFit software (IDBS, Guildford, UK).

T1 sequence (P56817 22-458): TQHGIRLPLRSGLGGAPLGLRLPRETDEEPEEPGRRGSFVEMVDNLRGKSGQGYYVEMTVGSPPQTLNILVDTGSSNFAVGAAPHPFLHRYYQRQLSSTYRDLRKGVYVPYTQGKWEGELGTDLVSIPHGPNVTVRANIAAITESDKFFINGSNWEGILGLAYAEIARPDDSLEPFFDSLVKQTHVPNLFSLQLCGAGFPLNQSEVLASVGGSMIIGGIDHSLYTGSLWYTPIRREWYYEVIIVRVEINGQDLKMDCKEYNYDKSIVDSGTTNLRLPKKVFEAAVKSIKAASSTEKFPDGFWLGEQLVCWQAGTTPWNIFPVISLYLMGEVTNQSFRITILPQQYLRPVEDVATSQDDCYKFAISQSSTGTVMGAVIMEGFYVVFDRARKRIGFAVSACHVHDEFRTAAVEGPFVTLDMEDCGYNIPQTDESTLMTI

SMILES	IC50
CN1C(=O)[C@@]2(C[C@H](c3ccccc3)Oc3ccc(Br)cc32)N=C1N (racemic) [Compound 44a, Trans-2′-amino-6-bromo-1′-methyl-2-phenylspiro[chroman-4,4′-imidazol]-5′(1′H)-one]	5000 to 10000 nM
CN1C(=O)[C@@]2(C[C@@H](c3ccccc3)Oc3ccc(Br)cc32)N=C1N (relative stereo) [Compound 44b, Cis-2′-amino-6-bromo-1′-methyl-2-phenylspiro[chroman-4,4′-imidazol]-5′(1′H)-one]	5000 to 10000 nM
CN1C(=O)C2(CC(c3ccccc3)Oc3ccc(-c4ccc(F)c(C#N)c4)cc32)N=C1N (stereo not shown) [Compound 4, 5-(2′-amino-1′-methyl-5′-oxo-2-phenyl-1′,5′-dihydrospiro[chroman-4,4′-imidazole]-6-yl)-2-fluorobenzonitrile]	100 to 500 nM
CN1C(=O)C2(CC(c3ccccc3)Oc3ccc(-c4cncc(C#N)c4)cc32)N=C1N (stereo not shown) [Compound 5, 5-(2′-amino-1′-methyl-5′-oxo-2-phenyl-1′,5′-dihydrospiro[chroman-4,4′-imidazole]-6-yl)nicotinonitrile]	100 to 500 nM
COc1cccc(-c2ccc3c(c2)C2(CC(c4ccccc4)O3)N=C(N)N(C)C2=O)c1 (stereo not shown) [Compound 13, 2′-amino-6-(3-methoxyphenyl)-1′-methyl-2-phenylspiro[chroman-4,4′-imidazol]-5′(1′H)-one]	100 to 500 nM
CN1C(=O)C2(CC(c3ccccc3)Oc3ccc(-c4cccnc4)cc32)N=C1N (stereo not shown) [Compound 15, 2′-amino-1′-methyl-2-phenyl-6-(pyridin-3-yl)spiro[chroman-4,4′-imidazol]-5′(1′H)-one]	500 to 1000 nM
CN1C(=O)C2(CC(c3ccccc3)Oc3ccc(-c4cc(C#N)ccc4Cl)cc32)N=C1N (stereo not shown) [Compound 21, 3-(2′-amino-1′-methyl-5′-oxo-2-phenyl-1′,5′-dihydrospiro[chroman-4,4′-imidazole]-6-yl)-4-chlorobenzonitrile]	500 to 1000 nM
C=Cc1cccc(-c2ccc3c(c2)C2(CC(c4ccccc4)O3)N=C(N)N(C)C2=O)c1 (stereo not shown) [Compound 22, 2′-amino-1′-methyl-2-phenyl-6-(3-vinylphenyl)spiro[chroman-4,4′-imidazol]-5′(1′H)-one]	1000 to 5000 nM

same assay, conditions: in vitro enzyme activity, BACE fluorescence assay, pH 4.5; read-out: IC50

SMILES	IC50
CN1C(=O)[C@@]2(C[C@H](c3ccccc3)Oc3ccc(-c4cccc(C#N)c4)cc32)N=C1N (racemic) [Compound 2a, 3-(2′-amino-1′-methyl-5′-oxo-2-phenyl-1′,5′-dihydrospiro[chroman-4,4′-imidazole]-6-yl)benzonitrile]	1 to 100 nM
CN1O[C@@]2(C[C@H]([C@@H]3CCCOC3)Oc3ccc(-c4cc(F)cc(F)c4)cc32)N=C1N (racemic) [Compound 326, (2S,4S/2R,4R)-6-(3,5-difluorophenyl)-2′-methyl-2-((S/R)-tetrahydro-2H-pyran-3-yl)-2′H-spiro[chroman-4,5′-[1,2,4]oxadiazol]-3′-amine]	100 to 500 nM
CN1O[C@@]2(C[C@@]3(CCOC3)Oc3ccc(-c4cccc(C#N)c4)cc32)N=C1N (relative stereo) [Compound 113a]	500 to 1000 nM
CN1C(=O)[C@@]2(CC(c3cccs3)Oc3ccc(-c4cccc(C#N)c4)cc32)N=C1N (stereo in doubt) [Compound 8a, 3-((2S,4S)-2′-amino-1′-methyl-5′-oxo-2-(thiophen-2-yl)-1′,5′-dihydrospiro[chroman-4,4′-imidazole]-6-yl)benzonitrile]	100 to 500 nM
CN1C(=O)[C@@]2(CC(c3cccs3)Oc3ccc(-c4cccc(C#N)c4)cc32)N=C1N (stereo in doubt) [Compound 8b, 3-((2R,4S)-2′-Amino-1′-methyl-5′-oxo-2-(thiophen-2-yl)-1′,5′-dihydrospiro[chroman-4,4′-imidazole]-6-yl)-benzonitrile]	1000 to 5000 nM
CN1O[C@]2(C[C@@H](C[C@H]3CCCO3)Oc3ccc(-c4cccc(C#N)c4)cc32)N=C1N (stereo in doubt) [Compound 360, 3-(3′-amino-2′-methyl-2-((tetrahydrofuran-2-yl)methyl)-2′H-spiro[chroman-4,5′-[1,2,4]oxadiazole]-6-yl)benzonitrile]	500 to 1000 nM
CN1O[C@]2(C[C@H](CC3CCCO3)Oc3ccc(-c4cccc(C#N)c4)cc32)N=C1N (stereo in doubt) [Compound 366, 3-(3′-amino-2′-methyl-2-((tetrahydrofuran-2-yl)methyl)-2′H-spiro[chroman-4,5′-[1,2,4]oxadiazole]-6-yl)benzonitrile]	500 to 1000 nM
CN1O[C@]2(C[C@@H](C[C@@H]3CCCO3)Oc3ccc(-c4cccc(C#N)c4)cc32)N=C1N (stereo in doubt) [Compound 367, 3-(3′-amino-2′-methyl-2-((tetrahydrofuran-2-yl)methyl)-2′H-spiro[chroman-4,5′-[1,2,4]oxadiazole]-6-yl)benzonitrile]	500 to 1000 nM
CN1C(=O)C2(CC(C3CCCOC3)Oc3ccc(-c4cccc(C#N)c4)cc32)N=C1N (stereo not shown) [Compound 1, 3-(2′-amino-1′-methyl-5′-oxo-2-(tetrahydro-2H-pyran-3-yl)-1′,5′-dihydrospiro[chroman-4,4′-imidazole]-6-yl)benzonitrile]	1 to 100 nM
CN1C(=O)C2(CC(c3ccccc3)Oc3ccc(-c4cccc(C#N)c4)cc32)N=C1N (stereo not shown) [Compound 2, 3-(2′-amino-1′-methyl-5′-oxo-2-phenyl-1′,5′-dihydrospiro[chroman-4,4′-imidazole]-6-yl)benzonitrile]	100 to 500 nM
CN1C(=O)[C@@]2(C[C@@H](c3ccccc3)Oc3ccc(-c4cccc(C#N)c4)cc32)N=C1N [Compound 2b]	1 to 100 nM
CN1C(=O)C2(CC(C3CCCCC3)Oc3ccc(-c4cccc(C#N)c4)cc32)N=C1N (stereo not shown) [Compound 3, 3-(2′-amino-2-cyclohexy-1′-methyl-5′-oxo-1′,5′-dihydrospiro[chroman-4,4′-imidazole]-6-yl)benzonitrile]	100 to 500 nM
CN1C(=O)C2(CC(c3ccc(Cl)cc3)Oc3ccc(-c4cccc(C#N)c4)cc32)N=C1N (stereo not shown) [Compound 6]	100 to 500 nM
CN1C(=O)C2(CC(c3cccc(F)c3)Oc3ccc(-c4cccc(C#N)c4)cc32)N=C1N (stereo not shown) [Compound 7]	100 to 500 nM
CN1C(=O)C2(CC(c3ccccc3F)Oc3ccc(-c4cccc(C#N)c4)cc32)N=C1N (stereo not shown) [Compound 9, 3-(2′-amino-2-(2-fluorophenyl)-1′-methyl-5′-oxo-1′,5′-dihydrospiro[chroman-4,4′-imidazole]-6-yl)benzonitrile]	100 to 500 nM
N#Cc1cccc(-c2ccc3c(c2)C2(CC(c4ccccc4)O3)N=C(N)N(CCC3CC3)C2=O)c1 (stereo not shown) [Compound 10]	100 to 500 nM
CN1C(=O)C2(CC(c3ccccc3)Oc3ccc(-c4cccc(C5CC5)c4)cc32)N=C1N (stereo not shown) [Compound 11, 2′-amino-6-(3-cyclopropylphenyl)-1′-methyl-2-phenylspiro[chroman-4,4′-imidazol]-5′(1′H)-one]	100 to 500 nM
CCN1C(=O)C2(CC(c3ccccc3)Oc3ccc(-c4cccc(C#N)c4)cc32)N=C1N (stereo not shown) [Compound 12, 3-(2′-amino-1′-ethyl-5′-oxo-2-phenyl-1′,5′-dihydrospiro[chroman-4,4′-imidazole]-6-yl)benzonitrile]	100 to 500 nM
CN1C(=O)C2(CC(c3cccc(F)c3F)Oc3ccc(-c4cccc(C#N)c4)cc32)N=C1N (stereo not shown) [Compound 14, 3-(2′-amino-2-(2,3-difluorophenyl)-1′-methyl-5′-oxo-1′,5′-dihydrospiro[chroman-4,4′-imidazole]-6-yl)benzonitrile]	100 to 500 nM
CN1C(=O)C2(CC(c3ccc(C(F)(F)F)cc3)Oc3ccc(-c4cccc(C#N)c4)cc32)N=C1N (stereo not shown) [Compound 16]	500 to 1000 nM
CN1C(=O)C2(CC(c3ccccc3)Oc3ccc(-c4cc(N)cc(C#N)c4)cc32)N=C1N (stereo not shown) [Compound 17, 3-amino-5-(2′-amino-1′-methyl-5′-oxo-2-phenyl-1′,5′-dihydrospiro[chroman-4,4′-imidazole]-6-yl)benzonitrile]	500 to 1000 nM
N#Cc1cccc(-c2ccc3c(c2)C2(CC(c4ccccc4)O3)N=C(N)N(CC3CCCCC3)C2=O)c1 (stereo not shown) [Compound 18, 3-(2′-amino-1′-(cyclohexylmethyl)-5′-oxo-2-phenyl-1′,5′-dihydrospiro[chroman-4,4′-imidazole]-6-yl)benzonitrile]	500 to 1000 nM
CN1C(=O)C2(CC(c3ccc(F)cc3)Oc3ccc(-c4cccc(C#N)c4)cc32)N=C1N (stereo not shown) [Compound 19, 3-(2′-amino-2-(4-fluorophenyl)-1′-methyl-5′-oxo-1′,5′-dihydrospiro[chroman-4,4′-imidazole]-6-yl)benzonitrile]	500 to 1000 nM
CN1C(=O)[C@@]2(C[C@@H](c3ccc(F)cc3)Oc3ccc(-c4cccc(C#N)c4)cc32)N=C1N [Compound 19a, 3-((2S,4S)-2′-amino-2-(4-fluorophenyl)-1′-methyl-5′-oxo-1′,5′-dihydrospiro[chroman-4,4′-imidazole]-6-yl)benzonitrile]	500 to 1000 nM
CN1C(=O)C2(CC(c3cccc(Cl)c3)Oc3ccc(-c4cccc(C#N)c4)cc32)N=C1N (stereo not shown) [Compound 20, 3-(2′-amino-2-(3-chlorophenyl)-1′-methyl-5′-oxo-1′,5′-dihydrospiro[chroman-4,4′-imidazole]-6-yl)benzonitrile]	500 to 1000 nM
COc1cccc(C2CC3(N=C(N)N(C)C3=O)c3cc(-c4cccc(C#N)c4)ccc3O2)c1 (stereo not shown) [Compound 23, 3-(2′-amino-2-(3-methoxyphenyl)-1′-methyl-5′-oxo-1′,5′-dihydrospiro[chroman-4,4′-imidazole]-6-yl)benzonitrile]	1000 to 5000 nM
